Measurements taken from patent publication US20130236656A1, “SELF-REDUCED METAL COMPLEX INKS SOLUBLE IN POLAR PROTIC SOLVENTS AND IMPROVED CURING METHODS” (LIQUID X PRINTED METALS, INC., priority 2012, published 2013).

Details: isolated solid

CC(C)C(=O)[O-].NCCN.[Ag+] [ethylenediamine silver isobutyrate]
hygroscopicity (hydroscopic [sic]): hydroscopic
